The source of these data is ChEMBL document CHEMBL4422689, “Discovery of 4'-OH-flurbiprofen Mannich base derivatives as potential Alzheimer's disease treatment with multiple inhibitory activities” (Bioorg Med Chem, 2019).

Data set [1] is described as follows: Antioxidant activity assessed as trolox equivalents of AAPH radical scavenging activity at 1 to 10 uM preincubated for 15 mins followed by AAPH addition measured every min for 90 mins by ORAC-FL assay. Format: functional.
Data set [2] addresses Amyloid-beta precursor protein (Homo sapiens) (UniProt P05067). The data set is described as follows: Inhibition of HFIP-pretreated human amyloid beta (1 to 42) self-induced aggregation at 25 uM measured after 24 hrs by thioflavin-T fluorescence assay relative to control.
Data set [3] is described as follows: Inhibition of Cu2+-induced human amyloid beta (1 to 42) aggregation at 25 uM after 24 hrs by thioflavin T-based fluorometric assay relative to control.
Data set [4] has as its target Acetylcholinesterase (Electrophorus electricus) (UniProt O42275). The data set is described as follows: Inhibition of Electrophorus electricus AChE at 50 uM using acetylthiocholine iodide as substrate measured after 15 mins by Ellman's method relative to control. (Ellman's reagent forms a yellow product with free thiols.)
Data set [5] addresses Butyrylcholinesterase (BuChE) (Rattus norvegicus, UniProt Q9JKC1). The data set is described as follows: (§1) Inhibition of rat serum BuChE at 25 uM using butyrylthiocholine iodide as substrate after 15 mins by Ellman's method relative to control. Conditions: rat serum, probe butyrylthiocholine iodide.
The nature of data set [6]: Metal chelating activity of the compound assessed as formation of Al3+-compound complex by measuring red shift in maximum absorption at 37.5 uM after 30 mins by UV-vis absorption spectra analysis.
Data set [7] can be described thus: Metal chelating activity of the compound assessed as formation of Cu2+-compound complex by measuring red shift in maximum absorption at 37.5 uM after 30 mins by UV-vis absorption spectra analysis.
A short description of data set [8]: Metal chelating activity of the compound assessed as formation of Fe2+-compound complex by measuring red shift in maximum absorption at 37.5 uM after 30 mins by UV-vis absorption spectra analysis.
Data set [9] is described as follows: Metal chelating activity of the compound assessed as formation of Cu2+-compound complex by measuring absorbance at 37.5 uM after 30 mins by UV-vis absorption spectra analysis.
The nature of data set [10]: Metal chelating activity of the compound assessed as formation of Fe2+-compound complex by measuring absorbance at 37.5 uM after 30 mins by UV-vis absorption spectra analysis.
Data set [11] in a line: Metal chelating activity of the compound assessed as formation of Zn2+-compound complex at 37.5 uM after 30 mins by UV-vis absorption spectra analysis.
Data set [12] is described as follows: Permeability of the compound in pH 7.4 PBS/EtOH at 100 ug/ml after 18 hrs by PAMPA-BBB assay. For orientation: In PAMPA a lipid-coated filter parts donor from acceptor wells.
The subject of data set [13] is BV-2. The data set is described as follows: Cytotoxicity against mouse BV2 cells assessed as effect on cell viability up to 10 uM after 24 hrs by MTT assay. Format: cell-based. Conditions: bv-2, 24 h.
The test system of data set [14] is BV-2. The experiment in a line: Cytotoxicity against LPS-stimulated mouse BV2 cells assessed as effect on cell viability at 0.5 to 10 uM pretreated for 30 mins followed by LPS-stimulation and measured after 24 hrs by MTT assay. The note with it: bv-2, 24 h. Format: cell-based. (Tetrazolium dyes change colour on reduction, which living cells bring about.)
In data set [15] the test system is BV-2. The experiment in a line: Cytotoxicity against LPS-stimulated mouse BV2 cells assessed as effect on cell viability at 2.5 to 10 uM pretreated for 30 mins followed by LPS-stimulation and measured after 24 hrs by MTT assay. Format: cell-based. Conditions: bv-2, 24 h.
For data set [16], the system named is BV-2. The data set is described as follows: Inhibition of LPS-induced nitric oxide production in mouse BV2 cells at 0.5 uM pretreated for 30 mins followed by LPS-stimulation and measured after 24 hrs by Griess assay relative to control. In kind it is functional.
Data set [17] concerns BV-2. The experiment in a line: Inhibition of LPS-induced nitric oxide production in mouse BV2 cells at 2.5 uM pretreated for 30 mins followed by LPS-stimulation and measured after 24 hrs by Griess assay relative to control. In kind it is functional.
In data set [18] the test system is BV-2. The experiment in a line: Inhibition of LPS-induced nitric oxide production in mouse BV2 cells at 10 uM pretreated for 30 mins followed by LPS-stimulation and measured after 24 hrs by Griess assay relative to control. In kind it is functional.
The subject of data set [19] is BV-2. The experiment in a line: Inhibition of LPS-induced TNFalpha production in mouse BV2 cells at 0.5 uM pretreated for 30 mins followed by LPS-stimulation and measured after 24 hrs by ELISA relative to control. Format: functional.
Data set [20] has as its system BV-2. The data set is described as follows: Inhibition of LPS-induced TNFalpha production in mouse BV2 cells at 2.5 uM pretreated for 30 mins followed by LPS-stimulation and measured after 24 hrs by ELISA relative to control. In kind it is functional.
Data set [21] deals with BV-2. The data set is described as follows: Inhibition of LPS-induced TNFalpha production in mouse BV2 cells at 10 uM pretreated for 30 mins followed by LPS-stimulation and measured after 24 hrs by ELISA relative to control. Format: functional.
In another data set the target is Butyrylcholinesterase (Rattus norvegicus, UniProt Q9JKC1). The description is as §1. The note with it: 0.25 h, 25 µM.

Activity calls are given as the source filed them. The calls are words filed in the database; no cut-off is given here. Where only a bound is given, the exact number is not on record here.

Acetylcholinesterase (Electrophorus electricus), sequence (O42275 24-633 limits assumed): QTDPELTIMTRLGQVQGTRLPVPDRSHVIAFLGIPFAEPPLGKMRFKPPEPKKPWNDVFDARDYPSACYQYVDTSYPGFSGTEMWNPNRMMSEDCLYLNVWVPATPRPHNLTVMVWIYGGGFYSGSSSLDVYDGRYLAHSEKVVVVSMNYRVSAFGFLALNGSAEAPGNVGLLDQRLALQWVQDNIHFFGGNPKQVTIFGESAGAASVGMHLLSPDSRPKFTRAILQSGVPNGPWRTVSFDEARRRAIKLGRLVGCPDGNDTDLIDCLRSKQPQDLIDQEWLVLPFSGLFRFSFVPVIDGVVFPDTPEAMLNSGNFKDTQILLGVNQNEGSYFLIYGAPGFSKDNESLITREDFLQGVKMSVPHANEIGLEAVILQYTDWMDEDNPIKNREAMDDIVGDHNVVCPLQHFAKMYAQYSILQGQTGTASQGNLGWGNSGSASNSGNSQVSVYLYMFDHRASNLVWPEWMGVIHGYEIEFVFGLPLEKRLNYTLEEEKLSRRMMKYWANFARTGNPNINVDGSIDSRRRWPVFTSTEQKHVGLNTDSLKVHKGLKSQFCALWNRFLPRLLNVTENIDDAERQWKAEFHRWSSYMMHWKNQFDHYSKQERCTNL
Butyrylcholinesterase (BuChE), sequence (Q9JKC1 whole entry): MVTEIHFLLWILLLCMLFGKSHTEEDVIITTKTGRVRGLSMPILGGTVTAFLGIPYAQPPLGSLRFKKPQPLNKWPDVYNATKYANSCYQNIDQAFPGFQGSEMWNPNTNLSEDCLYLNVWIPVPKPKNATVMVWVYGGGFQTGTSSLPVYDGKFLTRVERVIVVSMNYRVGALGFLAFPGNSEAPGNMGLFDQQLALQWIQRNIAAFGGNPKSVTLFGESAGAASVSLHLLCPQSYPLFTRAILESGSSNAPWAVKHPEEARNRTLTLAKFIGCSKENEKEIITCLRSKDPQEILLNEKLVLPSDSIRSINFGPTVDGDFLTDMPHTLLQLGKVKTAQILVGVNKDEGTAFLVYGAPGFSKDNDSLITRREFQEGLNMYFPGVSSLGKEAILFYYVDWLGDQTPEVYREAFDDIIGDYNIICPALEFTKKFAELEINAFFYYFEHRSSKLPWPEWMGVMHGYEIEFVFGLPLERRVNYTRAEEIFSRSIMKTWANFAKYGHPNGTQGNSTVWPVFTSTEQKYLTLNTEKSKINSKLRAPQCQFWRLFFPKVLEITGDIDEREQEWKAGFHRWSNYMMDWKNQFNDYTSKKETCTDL
Amyloid-beta precursor protein (Homo sapiens), sequence (P05067 whole entry): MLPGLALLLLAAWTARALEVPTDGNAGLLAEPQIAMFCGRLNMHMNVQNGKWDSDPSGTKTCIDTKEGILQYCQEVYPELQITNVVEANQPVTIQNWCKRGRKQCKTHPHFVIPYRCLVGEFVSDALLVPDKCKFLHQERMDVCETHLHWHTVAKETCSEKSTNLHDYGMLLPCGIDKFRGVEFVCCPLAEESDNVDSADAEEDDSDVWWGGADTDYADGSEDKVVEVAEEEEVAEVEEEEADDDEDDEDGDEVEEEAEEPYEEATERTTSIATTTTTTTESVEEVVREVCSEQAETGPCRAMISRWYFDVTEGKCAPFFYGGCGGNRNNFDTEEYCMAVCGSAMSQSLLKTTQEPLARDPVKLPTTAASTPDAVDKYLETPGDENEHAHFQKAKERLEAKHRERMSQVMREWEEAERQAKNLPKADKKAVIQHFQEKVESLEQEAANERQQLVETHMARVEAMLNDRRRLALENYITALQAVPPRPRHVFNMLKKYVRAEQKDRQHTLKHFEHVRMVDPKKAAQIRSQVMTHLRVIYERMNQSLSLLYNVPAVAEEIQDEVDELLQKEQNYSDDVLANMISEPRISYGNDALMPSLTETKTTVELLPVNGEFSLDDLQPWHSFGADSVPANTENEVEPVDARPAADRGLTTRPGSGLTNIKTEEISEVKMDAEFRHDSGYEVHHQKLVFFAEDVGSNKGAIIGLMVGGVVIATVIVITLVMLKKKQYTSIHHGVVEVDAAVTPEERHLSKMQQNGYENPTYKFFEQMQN
Butyrylcholinesterase, sequence (Q9JKC1 whole entry): as the sequence (Q9JKC1 whole entry) above

Take `COC(=O)C(C)c1ccc(-c2ccc(O)c(CN3CCN(C)CC3)c2)c(F)c1` (stereo not drawn): the Activity in data set [1] amounted to 2.12 µMequiv/µM. The inhibition in data set [2] worked out at 34.1%; in [3], 16.2%; in data set [4] it was 13.3%. The molecule also had an inhibition at 0.25 h, 25 µM in data set [5] of 1.12%.
On the same counts, the results for `CCN(Cc1cc(-c2ccc(C(C)C(=O)OC)cc2F)ccc1O)Cc1ccccc1OC` (stereo not drawn) are 2.6 µMequiv/µM, 60.5%, 42.5%, 28% and 5.12%.
As to `COC(=O)C(C)c1ccc(-c2ccc(O)c(CN3CCCCC3)c2)c(F)c1` (stereo not drawn), in data set [1], the Activity amounted to 1.51 µMequiv/µM. In addition, the inhibition worked out at 15.5% in data set [2], 11.2% in [3] and 22.9% in data set [4]. For the same molecule, the inhibition at 0.25 h, 25 µM in data set [5] is 1.95%.
As for `CCN1CCN(Cc2cc(-c3ccc(C(C)C(=O)OC)cc3F)ccc2O)CC1` (stereo not drawn), the Activity in data set [1] was 2.16 µMequiv/µM. In addition, the inhibition in data set [2] stood at 28.9%; in data set [3], 33.9%; in [4] it was 7.13%. The same molecule had an inhibition at 0.25 h, 25 µM in data set [5] of 4.28%.
On to `CCN(Cc1ccc(N(C)C)cc1)Cc1cc(-c2ccc(C(C)C(=O)OC)cc2F)ccc1O` (stereo not drawn), for which the Activity stood at 4.09 µMequiv/µM in data set [1]; 278 nm in [6]; 270 nm in [7]; 270 nm in data set [8]; 0.1 in [9]; 0.1 in data set [10]. The Activity entry with BV-2 [13], with BV-2 [14] and in the data set with BV-2 [15] was “Non-Toxic” in each case. Besides, the inhibition in [2] stood at 65%; in [3] it was 38%; in data set [4], 34.1%. In data set [5], this molecule gave an inhibition at 0.25 h, 25 µM of 2.21%. Besides, the result in [11] was inactive. The same molecule displayed a Papp at 18 h, 100 ug/ml in [12] of 8.54 ×10⁻⁶ cm/s. The inhibition at 0.5 µM with BV-2 [16] was found to be 28.3%; with BV-2 [19] it was 25.3%. The results for the inhibition at 2.5 µM in the data set on BV-2 [17] and in the data set with BV-2 [20] were 32.5% and 55.3%, respectively. Besides, the inhibition at 10 µM is 65% with BV-2 [18] and 68.2% in the data set with BV-2 [21].
As to `CCN(CC)Cc1cc(-c2ccc(C(C)C(=O)OC)cc2F)ccc1O` (stereo not drawn), the Activity in data set [1] is 1.81 µMequiv/µM. Also, the inhibition in data set [2] turned out to be 8.3%; in data set [3] it was 29.7%; in [4] it was 14.3%. In [5], this molecule registered an inhibition at 0.25 h, 25 µM of 1.58%.
As for `CC(C(=O)O)c1ccc(-c2ccccc2)c(F)c1` (stereo not drawn) [FLURBIPROFEN], the Activity in data set [1] was 0.18 µMequiv/µM. For the same molecule, the inhibition is 12.8% in data set [2], 7.56% in data set [3] and 15.6% in data set [4]. Also, the “inhibition (INH)” value against Butyrylcholinesterase is “Not Active”. Further, the Papp at 18 h, 100 ug/ml in data set [12] came out at 1.56 ×10⁻⁶ cm/s. Also, the values for the inhibition at 2.5 µM in the data set on BV-2 [17] and with BV-2 [20] were 11.8% and 9.6%, respectively. Also, the inhibition at 10 µM in the data set on BV-2 [18] came to 23%; in the data set on BV-2 [21], 30.3%.
In the case of `COc1cc(/C=C/C(=O)CC(=O)/C=C/c2ccc(O)c(OC)c2)ccc1O`, the inhibition in [3] turned out to be 67.2%.
For `COC(=O)C(C)c1ccc(-c2ccc(O)c(CN3CCOCC3)c2)c(F)c1` (stereo not drawn), the Activity in [1] was found to be 2.14 µMequiv/µM. The inhibition in data set [2] was determined as 12.9%; in [3] it was 22.1%; in data set [4] it was 14.9%. Moreover, the inhibition at 0.25 h, 25 µM in data set [5] was found to be 1.19%.
Turning to `CCN(Cc1cc(-c2ccc(C(C)C(=O)OC)cc2F)ccc1O)Cc1ccccc1N(C)C` (stereo not drawn), in [1], the Activity was found to be 1.57 µMequiv/µM. Also, the inhibition is 60.6% in data set [2], 42.1% in data set [3] and 45.5% in [4]. The inhibition at 0.25 h, 25 µM in data set [5] is 16.3%.
Turning to `COC(=O)C(C)c1ccc(-c2ccc(O)c(CN3CCCC3)c2)c(F)c1` (stereo not drawn), in data set [1], the Activity was found to be 2.13 µMequiv/µM. The results for the inhibition in data set [2], in data set [3] and in [4] were 15.8%, 28.5% and 17%, respectively. This molecule also displayed an inhibition at 0.25 h, 25 µM in [5] of 1.38%.
Turning to `COC(=O)C(C)c1ccc(-c2ccc(O)c(CN3CCN(Cc4ccccc4)CC3)c2)c(F)c1` (stereo not drawn), the Activity in data set [1] was found to be 1.19 µMequiv/µM. The inhibition was determined as 28.4% in data set [2], 39.2% in [3] and 38.3% in data set [4]. Moreover, the inhibition at 0.25 h, 25 µM in [5] came to 2.86%.
For `COC(=O)C(C)c1ccc(-c2ccc(O)c(CN(C)C)c2)c(F)c1` (stereo not drawn), the Activity in [1] is 2.07 µMequiv/µM; in the data set on BV-2 [13], “Non-Toxic”; in the data set with BV-2 [14], “Non-Toxic”; in the data set with BV-2 [15], “Non-Toxic”. Also, the inhibition was found to be 42.7% in data set [2], 38.1% in data set [3] and 18.6% in data set [4]. Besides, in data set [5], the inhibition at 0.25 h, 25 µM is 2.56%. In addition, in [12], the apparent permeability coefficient (Papp) at 18 h, 100 ug/ml stood at 6.78 ×10⁻⁶ cm/s. In addition, the values for the inhibition at 0.5 µM in the data set with BV-2 [16] and in the data set with BV-2 [19] were 21.7% and 21.8%, respectively. The inhibition at 2.5 µM was 39.2% with BV-2 [17] and 51.2% with BV-2 [20]. For the same molecule, the inhibition at 10 µM with BV-2 [18] was determined as 61.7%; in the data set with BV-2 [21] it was 72.9%.
As for `CCN(Cc1ccccc1)Cc1cc(-c2ccc(C(C)C(=O)OC)cc2F)ccc1O` (stereo not drawn), the Activity in data set [1] turned out to be 2.24 µMequiv/µM. Also, the inhibition in [2] was determined as 36.8%; in data set [3] it was 34.9%; in data set [4], 36.4%. The inhibition at 0.25 h, 25 µM in [5] turned out to be 4.61%.
Regarding `COC(=O)C(C)c1ccc(-c2ccc(O)c(CN(C)Cc3ccccc3)c2)c(F)c1` (stereo not drawn), in data set [1], the Activity came to 1.59 µMequiv/µM. Besides, the values for the inhibition in [2], in data set [3] and in data set [4] were 36.7%, 31.2% and 35.1%, respectively. Besides, the inhibition at 0.25 h, 25 µM in [5] worked out at 1.28%.
`COc1cc2c(cc1OC)C(=O)C(CC1CCN(Cc3ccccc3)CC1)C2` (stereo not drawn) had an inhibition in data set [3] of less than 5%.
For `COC(=O)C(C)c1ccc(-c2ccc(O)c(CN(C)Cc3ccccc3OC)c2)c(F)c1` (stereo not drawn), the Activity in [1] was 2.12 µMequiv/µM. Moreover, the results for the inhibition in [2], in [3] and in data set [4] were 60.6%, 38.8% and 28%, respectively. This molecule also came in with an inhibition at 0.25 h, 25 µM in [5] of 3.06%.

Broadly, the inhibition is how much of the control response was suppressed. What is called Papp is the rate of passage across a membrane or cell layer, normalised by area and donor concentration. Low readings indicate slow passage, high ones fast passage.
